From patent US8822754B2, “Ecdysone receptor-based inducible gene expression system” (Intrexon Corporation, priority 2000, dated 2014)

Assays:
GAL4RXR + VP16CfEcR = experiment: Transactivation of reporter genes through switch 1.3 in CHO cells; type: cell-based, Choristoneura fumiferana; settings: switch 1.3 GAL4RXR + VP16CfEcR, pGAL4RELuc
Method: (§1) The cells were harvested and reporter activity was assayed.
(§2) Cells were harvested 24-48 hr after adding ligands. […] Twenty μl of lysate was assayed.

VP16CfEcR [1] = experiment: Transactivation of reporter genes through switch 1.7 in CHO cells; type: cell-based, Choristoneura fumiferana; settings: switch 1.7 VP16CfEcR, pEcRELuc
Method: (§3) Six ecdysone response elements (“EcRE”; SEQ ID NO: 59) from the hsp27 gene were placed upstream of the promoter and a luciferase gene (SEQ ID NO: 57). This switch most probably uses endogenous RXR.
as §1, §2

CfVgRXR = experiment: Transactivation of reporter genes through switch 1.10 in CHO cells; type: cell-based, Choristoneura fumiferana; settings: switch 1.10 CfVgRXR, pIND(SP1)LacZ
Method: This example was prepared in the same way as switch 1.9 except MmRXR (SEQ ID NO: 53) was deleted.
as §1, §2

GAL4EcR + VP16USP [2] = experiment: Transactivation of reporter genes through switch 1.2 in 3T3 cells; type: cell-based, Choristoneura fumiferana; settings: switch 1.2 GAL4EcR + VP16USP, pGAL4RELuc
Method: (§4) This construct was prepared in the same way as in switch 1.1 above except MmRXRDEF was replaced with the D, E and F domains from spruce budworm USP (“CfUSPDEF”; SEQ ID NO: 58). The constructs used in this example are similar to those disclosed in U.S. Pat. No. 5,880,333 except that Choristoneura fumiferana USP rather than Drosophila melanogaster USP was utilized.
(§5) The cells were plated when they reached 50% confluency.
as §2

DmVgRXR + MmRXR [3] = target: T1, DmVgRXR + MmRXR (Drosophila melanogaster, UniProt P34021, E282G/G283S/G286V); experiment: Transactivation of reporter genes through switch 1.8 in 3T3 cells; type: cell-based; settings: switch 1.8 DmVgRXR + MmRXR, pIND(SP1)LacZ
T1 construct: host or cells: CHO, NIH3T3, 293 or CV1 cells (one cell line per assay)
T1 sequence (P34021 whole entry E282G/G283S/G286V): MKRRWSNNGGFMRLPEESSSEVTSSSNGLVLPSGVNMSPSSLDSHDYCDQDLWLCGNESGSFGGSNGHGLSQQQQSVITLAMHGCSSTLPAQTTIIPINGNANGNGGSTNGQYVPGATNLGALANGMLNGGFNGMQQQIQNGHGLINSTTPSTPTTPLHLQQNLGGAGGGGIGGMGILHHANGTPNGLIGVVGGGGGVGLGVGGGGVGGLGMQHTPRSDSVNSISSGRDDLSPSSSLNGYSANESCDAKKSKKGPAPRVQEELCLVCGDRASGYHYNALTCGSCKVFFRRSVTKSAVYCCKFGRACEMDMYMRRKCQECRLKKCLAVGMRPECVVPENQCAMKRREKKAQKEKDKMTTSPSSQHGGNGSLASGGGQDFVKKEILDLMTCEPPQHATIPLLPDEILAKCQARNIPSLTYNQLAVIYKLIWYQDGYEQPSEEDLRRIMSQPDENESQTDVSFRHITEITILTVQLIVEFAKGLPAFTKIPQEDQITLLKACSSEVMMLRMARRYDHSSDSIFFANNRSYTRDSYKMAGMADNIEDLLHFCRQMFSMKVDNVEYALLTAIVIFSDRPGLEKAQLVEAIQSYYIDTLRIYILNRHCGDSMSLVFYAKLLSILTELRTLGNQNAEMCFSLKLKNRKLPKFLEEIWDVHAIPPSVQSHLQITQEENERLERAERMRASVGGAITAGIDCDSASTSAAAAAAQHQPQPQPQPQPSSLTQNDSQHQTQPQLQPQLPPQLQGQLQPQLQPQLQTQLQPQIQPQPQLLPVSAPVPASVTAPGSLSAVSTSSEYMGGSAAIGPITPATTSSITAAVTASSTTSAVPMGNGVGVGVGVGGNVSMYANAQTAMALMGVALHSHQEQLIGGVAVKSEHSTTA
T1 sequence (P28700 whole entry, further chain): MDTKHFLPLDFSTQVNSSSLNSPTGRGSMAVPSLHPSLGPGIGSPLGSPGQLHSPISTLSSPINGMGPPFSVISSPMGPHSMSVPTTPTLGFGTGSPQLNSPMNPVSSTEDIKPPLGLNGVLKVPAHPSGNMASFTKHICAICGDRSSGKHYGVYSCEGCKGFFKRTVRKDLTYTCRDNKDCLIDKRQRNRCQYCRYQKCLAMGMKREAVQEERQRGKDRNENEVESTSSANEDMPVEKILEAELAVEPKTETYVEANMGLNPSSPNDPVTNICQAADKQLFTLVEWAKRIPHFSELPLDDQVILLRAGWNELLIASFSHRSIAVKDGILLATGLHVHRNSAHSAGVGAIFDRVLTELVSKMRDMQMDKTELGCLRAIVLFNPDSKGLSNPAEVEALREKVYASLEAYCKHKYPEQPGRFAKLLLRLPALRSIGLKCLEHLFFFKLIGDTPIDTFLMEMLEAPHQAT
Text: (§6) This system was purchased from Invitrogen Corp., Carlsbad, Calif. It comprises a Drosophila melanogaster EcR (“DmEcR”) with a modified DNABD fused to VP16AD and placed under the control of a CMV promoter (SEQ ID NO: 60). Full length MmRXR (SEQ ID NO: 53) was placed under the control of the RSV promoter (SEQ ID NO: 61). The reporter, pIND(SP1)LacZ, contains five copies of a modified ecdysone response element (“EcRE”, E/GRE), three copies of an SP1 enhancer, and a minimal heat shock promoter, all of which were placed upstream to the LacZ reporter gene.
as §5, §2

GAL4USP + VP16CfEcR = experiment: Transactivation of reporter genes through switch 1.5 in 293 cells; type: cell-based, Choristoneura fumiferana; settings: switch 1.5 GAL4USP + VP16CfEcR, pGAL4RELuc
Method: This construct was prepared in the same way as switch 1.3 except MmRXRDEF was replaced with CfUSPDEF (SEQ ID NO: 58).
The same procedures described for CHO were followed for 293 cells except that the cells were plated in biocoated plates to avoid clumping.
as §2

GAL4EcR + VP16USP [4] = experiment: Transactivation of reporter genes through switch 1.2 in CV1 cells; type: cell-based, Choristoneura fumiferana; settings: switch 1.2 GAL4EcR + VP16USP, pGAL4RELuc
Method: as §4
(§7) The same procedures described for NIH3T3 cells were followed for CV1 cells
as §2

VP16CfEcR [5] = experiment: Transactivation of reporter genes through switch 1.7 in CV1 cells; type: cell-based, Choristoneura fumiferana; settings: switch 1.7 VP16CfEcR, pEcRELuc
Method: as §3, §7, §2

DmVgRXR + MmRXR [6] = target: T1, DmVgRXR + MmRXR; experiment: Transactivation of reporter genes through switch 1.8 in CV1 cells; type: cell-based; settings: switch 1.8 DmVgRXR + MmRXR, pIND(SP1)LacZ
Text: as §6, §7, §2

CfEcR = experiment: Comparison of switches in the mammalian cell lines tested (Tables 1-4); type: cell-based, Choristoneura fumiferana; settings: see Tables 1-4
Method: Several commercially available lipofactors as well as electroporation methods were evaluated and the best conditions for transfection of each cell line were developed. CHO, NIH3T3, 293 and CV1 cells were grown to 60% confluency. DNAs corresponding, to the various switch constructs outlined in Examples 1.1 through 1.10 were transfected into CHO cells, NIH3T3 cells, 293 cells, or CV1 cells as follows.
as §2

GAL4RXR + VP16DmEcR = target: T2, GAL4RXR + VP16DmEcR (Drosophila melanogaster, UniProt P34021); experiment: Transactivation of reporter genes through switch 1.4 in CHO cells; type: cell-based; set-up: expressed in transfected cells; host or cells: CHO cells (transient co-transfection); settings: switch 1.4 GAL4RXR + VP16DmEcR, pGAL4RELuc
T2 sequence (P34021 254-878): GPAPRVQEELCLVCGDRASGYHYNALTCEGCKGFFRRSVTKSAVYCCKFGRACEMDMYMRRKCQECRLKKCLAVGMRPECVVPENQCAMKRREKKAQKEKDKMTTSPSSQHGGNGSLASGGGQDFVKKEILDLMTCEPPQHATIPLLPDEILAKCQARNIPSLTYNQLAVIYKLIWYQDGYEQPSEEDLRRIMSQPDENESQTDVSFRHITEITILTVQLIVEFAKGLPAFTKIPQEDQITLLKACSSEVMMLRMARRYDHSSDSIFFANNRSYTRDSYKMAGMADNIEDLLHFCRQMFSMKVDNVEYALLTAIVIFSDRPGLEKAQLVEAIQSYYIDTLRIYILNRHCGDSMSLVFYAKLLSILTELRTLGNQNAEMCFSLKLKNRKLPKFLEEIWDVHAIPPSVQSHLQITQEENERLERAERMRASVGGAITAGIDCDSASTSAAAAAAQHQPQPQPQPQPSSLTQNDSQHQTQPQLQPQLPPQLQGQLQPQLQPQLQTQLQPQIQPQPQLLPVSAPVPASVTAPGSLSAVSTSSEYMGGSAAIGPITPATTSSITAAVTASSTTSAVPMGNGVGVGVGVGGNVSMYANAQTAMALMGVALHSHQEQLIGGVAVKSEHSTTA
T2 sequence (P28700 206-467 partner limits assumed): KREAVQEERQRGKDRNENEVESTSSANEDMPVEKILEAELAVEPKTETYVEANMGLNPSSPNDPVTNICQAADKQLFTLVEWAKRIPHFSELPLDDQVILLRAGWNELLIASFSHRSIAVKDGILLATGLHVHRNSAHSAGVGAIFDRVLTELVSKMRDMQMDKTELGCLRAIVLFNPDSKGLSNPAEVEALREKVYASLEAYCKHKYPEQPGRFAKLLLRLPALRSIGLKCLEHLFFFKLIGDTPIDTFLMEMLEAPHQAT
Method: This construct was prepared in the same way as switch 1.3 except CfEcRCDEF was replaced with DmEcRCDEF (SEQ ID NO: 6).
as §1, §2

CCc1c(OC)cccc1C(=O)NN(C(=O)c1cc(C)cc(C)c1)C(C)(C)C [N-(2-ethyl-3-methoxybenzoyl)-N′-(3,5-dimethylbenzoyl)-N′-tert-butylhydrazine] was tested, and the “Mean Fold Activation with 50 μM N-(2-ethyl-3-methoxybenzoyl)-N′-(3,5-dimethylbenzoyl)-N′-t-butylhydrazine” value (GAL4RXR + VP16CfEcR) was 85 fold, the “Mean Fold Activation with 50 μM N-(2-ethyl-3-methoxybenzoyl)-N′-(3,5-dimethylbenzoyl)-N′-t-butylhydrazine” value (VP16CfEcR [1]) was 36 fold and the “Mean Fold Activation with 50 μM N-(2-ethyl-3-methoxybenzoyl)-N′-(3,5-dimethylbenzoyl)-N′-t-butylhydrazine” value (CfVgRXR) was 29 fold. For the same compound, the “Mean Fold Activation Through N-(2-ethyl-3-methoxybenzoyl)-N′-(3,5-dimethylbenzoyl)-N′-t-butylhydrazine” value (GAL4EcR + VP16USP [2]) was 2 fold, the “Mean Fold Activation Through N-(2-ethyl-3-methoxybenzoyl)-N′-(3,5-dimethylbenzoyl)-N′-t-butylhydrazine” value (DmVgRXR + MmRXR [3]) was 21 fold and the “Mean Fold Activation Through N-(2-ethyl-3-methoxybenzoyl)-N′-(3,5-dimethylbenzoyl)-N′-t-butylhydrazine” value (GAL4USP + VP16CfEcR) was 2 fold. For the same compound, the “Mean Fold Activation Through N-(2-ethyl-3-methoxybenzoyl)-N′-(3,5-dimethylbenzoyl)-N′-t-butylhydrazine” value (GAL4EcR + VP16USP [4]) was 2 fold, the “Mean Fold Activation Through N-(2-ethyl-3-methoxybenzoyl)-N′-(3,5-dimethylbenzoyl)-N′-t-butylhydrazine” value (VP16CfEcR [5]) was 1 fold and the “Mean Fold Activation Through N-(2-ethyl-3-methoxybenzoyl)-N′-(3,5-dimethylbenzoyl)-N′-t-butylhydrazine” value (DmVgRXR + MmRXR [6]) was 12 fold. For the same compound, the “potency as activators of CfEcR as compared to DmEcR” value (CfEcR) was “more potent activators of CfEcR” and the “Mean Fold Activation with 50 μM N-(2-ethyl-3-methoxybenzoyl)-N′-(3,5-dimethylbenzoyl)-N′-t-butylhydrazine” value (GAL4RXR + VP16DmEcR) was 312 fold.
